Values joined by “and” are separate entries in the source; they are usually repeats but may differ in a detail not shown here. Equal values may be shown once. Inconclusive results and toxic doses are left out.
Test system: B6C3F1 mice, ip Sarcoma M5076, median survival T/C
Test: NCI In Vivo Anticancer Drug Screen. Data for tumor model Sarcoma M5076 (intraperitoneal) in B6C3F1 mice
Conditions: endpoint: median survival time, higher = longer survival
Outline: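 Transplantable tumour in mice; compound-treated vs vehicle-treated groups. Read-out: survival. Value = treated/control ratio.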

[1] = dose: 50.0 mg/kg/injection, schedule: Q04DX004 (ip), vehicle: saline
[2] = dose: 100.0 mg/kg/injection, schedule: Q04DX004 (ip), vehicle: saline
[3] = dose: 6.25 mg/kg/injection, schedule: Q04DX004 (ip), vehicle: water
[4] = dose: 50.0 mg/kg/injection, schedule: Q04DX004 (ip), vehicle: Klucel (hydroxypropylcellulose) (HPC)
[5] = dose: 100.0 mg/kg/injection, schedule: Q04DX004 (ip), vehicle: Klucel (hydroxypropylcellulose) (HPC)
[6] = dose: 200.0 mg/kg/injection, schedule: Q04DX004 (ip), vehicle: Klucel (hydroxypropylcellulose) (HPC)
[7] = dose: 400.0 mg/kg/injection, schedule: Q04DX004 (ip), vehicle: Klucel (hydroxypropylcellulose) (HPC)
[8] = dose: 800.0 mg/kg/injection, schedule: Q04DX004 (ip), vehicle: Klucel (hydroxypropylcellulose) (HPC)

O=C[C@@H](CO)O[C@H](C=O)c1c[nH]c(=O)[nH]c1=O
T/C (dose: 12.5 mg/kg/injection, schedule: Q04DX004 (ip), vehicle: saline): 111 % of control and 121 % of control | T/C (dose: 18.0 mg/kg/injection, schedule: Q04DX004 (ip), vehicle: saline): 110 % of control | T/C (dose: 25.0 mg/kg/injection, schedule: Q04DX004 (ip), vehicle: saline): 114 % of control and 123 % of control | T/C (dose: 30.0 mg/kg/injection, schedule: Q04DX004 (ip), vehicle: saline): 118 % of control | T/C [1]: 123 % of control | T/C [2]: 165 % of control | T/C (dose: 138.8 mg/kg/injection, schedule: Q04DX004 (ip), vehicle: saline): 153 % of control

O=C(CCl)N1CCN(C/C=C/c2ccccc2)CC1
T/C (dose: 37.5 mg/kg/injection, schedule: Q04DX004 (ip), vehicle: saline): 106 % of control | T/C (dose: 75.0 mg/kg/injection, schedule: Q04DX004 (ip), vehicle: saline): 96 % of control | T/C (dose: 150.0 mg/kg/injection, schedule: Q04DX004 (ip), vehicle: saline): 96 % of control

O=c1/c(=C\C=C\c2ccccc2)sc2n1CCN=2
T/C (dose: 50.0 mg/kg/injection, schedule: Q04DX004 (ip), vehicle: saline with Tween-80): 95 % of control | T/C (dose: 100.0 mg/kg/injection, schedule: Q04DX004 (ip), vehicle: saline with Tween-80): 99 % of control | T/C (dose: 200.0 mg/kg/injection, schedule: Q04DX004 (ip), vehicle: saline with Tween-80): 91 % of control | T/C (dose: 400.0 mg/kg/injection, schedule: Q04DX004 (ip), vehicle: saline with Tween-80): 99 % of control

N#Cc1ccc(NN=O)nc1
T/C [3]: 124 % of control | T/C (dose: 6.5 mg/kg/injection, schedule: Q04DX004 (ip), vehicle: water): 116 % of control | T/C (dose: 25.0 mg/kg/injection, schedule: Q04DX004 (ip), vehicle: water): 152 % of control | T/C (dose: 50.0 mg/kg/injection, schedule: Q04DX004 (ip), vehicle: water): 160 % of control and 177 % of control | T/C (dose: 83.0 mg/kg/injection, schedule: Q04DX004 (ip), vehicle: water): 182 % of control | T/C (dose: 100.0 mg/kg/injection, schedule: Q04DX004 (ip), vehicle: water): 118 % of control | T/C (dose: 139.0 mg/kg/injection, schedule: Q04DX004 (ip), vehicle: water): 200 % of control

CC(=O)C1C(=O)C(=O)N(c2ccc(Cl)cc2)C1=O (centres undefined)
T/C [4]: 111 % of control | T/C [5]: 103 % of control | T/C [6]: 99 % of control | T/C [7]: 93 % of control | T/C [8]: 92 % of control

CC#CCOCC(O)CCl (centres undefined)
T/C [1]: 99 % of control | T/C (dose: 50.0 mg/kg/injection, schedule: Q04DX004 (ip), vehicle: suspension in saline): 102 % of control | T/C [2]: 98 % of control | T/C (dose: 100.0 mg/kg/injection, schedule: Q04DX004 (ip), vehicle: suspension in saline): 102 % of control | T/C (dose: 200.0 mg/kg/injection, schedule: Q04DX004 (ip), vehicle: saline): 103 % of control | T/C (dose: 200.0 mg/kg/injection, schedule: Q04DX004 (ip), vehicle: suspension in saline): 102 % of control | T/C (dose: 400.0 mg/kg/injection, schedule: Q04DX004 (ip), vehicle: suspension in saline): 100 % of control

NC(C/[N+]([O-])=N/O)C(=O)O (centres undefined)
T/C (dose: 30.0 mg/kg/injection, schedule: Q04DX005 (ip), vehicle: alkali diluted with saline): 93 % of control | T/C (dose: 120.0 mg/kg/injection, schedule: Q04DX005 (ip), vehicle: alkali diluted with saline): 103 % of control | T/C (dose: 240.0 mg/kg/injection, schedule: Q04DX005 (ip), vehicle: alkali diluted with saline): 118 % of control

NC(N)=NS(=O)(=O)c1ccc(NCc2c3ccccc3nc3ccccc23)cc1
T/C [4]: 159 % of control | T/C [5]: 151 % of control | T/C [6]: 178 % of control | T/C [7]: 158 % of control and 207 % of control | T/C [8]: 167 % of control and 194 % of control

CCN(CC)CCn1[nH]c2c3ccc(=O)cc3sc3c(NCCN)ccc1c32
T/C (dose: 3.12 mg/kg/injection, schedule: Q04DX004 (ip), vehicle: water): 194 % of control | T/C [3]: 155 % of control and 163 % of control and 200 % of control | T/C (dose: 12.5 mg/kg/injection, schedule: Q04DX004 (ip), vehicle: water): 178 % of control and 201 % of control and 239 % of control
